According to US6545182B2, “Methods and compositions for modulating alpha adrenergic receptor activity” (Allergan Sales, Inc., priority 2000, dated 2003):

Legend:
Assay type in all cases: cell-based
[1] = molecular target: T1, alpha 2A adrenergic receptor (Homo sapiens, UniProt P08913); assay: RSAT (Receptor Selection and Amplification Technology) assay, alpha 2A; details: for EC50: NIH-3T3 cells cotransfected with receptor and Gq/i5; for efficacy or intrinsic activity (value in parentheses) Alpha 2A: ratio of maximal effect to that of standard full agonist brimonidine
T1 construct: expressed in transfected cells; host or cells: NIH-3T3 cells, transient cotransfection by calcium phosphate
T1 sequence (P08913 1-465): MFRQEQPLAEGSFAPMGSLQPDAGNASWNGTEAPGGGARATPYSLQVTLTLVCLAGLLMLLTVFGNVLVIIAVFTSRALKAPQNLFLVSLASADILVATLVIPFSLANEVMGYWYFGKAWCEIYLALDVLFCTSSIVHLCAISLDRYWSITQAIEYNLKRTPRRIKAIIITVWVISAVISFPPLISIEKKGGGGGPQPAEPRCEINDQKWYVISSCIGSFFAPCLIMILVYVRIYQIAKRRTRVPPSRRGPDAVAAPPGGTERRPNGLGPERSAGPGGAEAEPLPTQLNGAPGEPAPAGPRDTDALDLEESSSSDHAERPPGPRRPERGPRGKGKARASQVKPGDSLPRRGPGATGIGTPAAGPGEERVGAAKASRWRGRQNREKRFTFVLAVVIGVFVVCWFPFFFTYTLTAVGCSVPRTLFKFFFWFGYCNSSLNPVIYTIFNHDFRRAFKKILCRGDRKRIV
Procedure: (§1) Activity was measured using the RSAT (Receptor Selection and Amplification Technology) assay, developed by Receptor Technologies, Inc. of Winooski, Vt. (now Acadia Pharmaceuticals of San Diego, Calif.), adapted for use with recombinant alpha2 adrenergic receptors in collaboration with Allergan. The assay measures receptor-mediated loss of contact inhibition that results in selective proliferation of receptor-containing cells in a mixed population of confluent cells. The increase in cell number is assessed with an appropriate transfected marker gene such as β-galactosidase, the activity of which can be easily measured in a 96-well format. Receptors that activate the G protein, Gq, elicit this response. Alpha2 receptors, which normally couple to Gi, activate the RSAT response when coexpressed with a hybrid Gq protein that has a Gi receptor recognition domain, called Gq/i5.
(§2) The assay is conducted as follows. NIH-3T3 cells are plated at a density of 2×10^6 cells in 15 cm dishes and maintained in Dulbecco's modified Eagle's medium supplemented with 10% calf serum. One day later, cells are cotransfected by calcium phosphate precipitation with mammalian expression plasmids encoding p-SV-β-galactosidase (5-10 μg), receptor (1-2 μg) and G protein (1-2 μg). 40 μg salmon sperm DNA may also be included in the transfection mixture to increase transfection efficiency. Fresh media is added on the following day and 1-2 days later, cells are harvested and frozen in 50 assay aliquots. Transfectant cells are thawed and 100 μl added to 100 μl aliquots of various concentrations of drugs in triplicate in 96-well dishes. Incubations continue 72-96 hr at 37°. After washing with phosphate-buffered saline, β-galactosidase enzyme activity is determined by adding 200 μl of the chromogenic substrate (consisting of 3.5 mM o-nitrophenyl-β-D-galactopyranoside and 0.5% of the non-ionic surfactant nonidet P-40 in phosphate buffered saline), incubating overnight at 30° and measuring optical density at 420 nm. The absorbency is a measure of enzyme activity, which depends on cell number and reflects a receptor-mediated cell proliferation. The EC50 and maximal effect of each drug at each alpha2 receptor is determined. The efficacy or intrinsic activity is calculated as a ratio of the maximal effect of the drug to the maximal effect of a standard full agonist for each receptor subtype. Brimonidine, also called UK14304, is used as the standard agonist for the alpha2A, alpha2B and alpha2C receptors. The RSAT assay is also discussed in Messier et al. (1995) High throughput assays of cloned adrenergic, muscarinic, neurokinin and neurotrophin receptors in living mammalian cells, Pharmacol. Toxicol. 76:308-11; see also Conklin et al. (1993) Substitution of three amino acids switches receptor specificity of Gqα to that of Giα, Nature 363:274-6; Both of these papers are incorporated by reference herein.

[2] = molecular target: T2, alpha 2B adrenergic receptor (Homo sapiens, UniProt P18089); assay: RSAT (Receptor Selection and Amplification Technology) assay, alpha 2B; details: for EC50: NIH-3T3 cells cotransfected with receptor and Gq/i5; for efficacy or intrinsic activity (value in parentheses) Alpha 2B: ratio of maximal effect to that of standard full agonist brimonidine
T2 construct: expressed in transfected cells; host or cells: NIH-3T3 cells, transient cotransfection by calcium phosphate
T2 sequence (P18089 1-450): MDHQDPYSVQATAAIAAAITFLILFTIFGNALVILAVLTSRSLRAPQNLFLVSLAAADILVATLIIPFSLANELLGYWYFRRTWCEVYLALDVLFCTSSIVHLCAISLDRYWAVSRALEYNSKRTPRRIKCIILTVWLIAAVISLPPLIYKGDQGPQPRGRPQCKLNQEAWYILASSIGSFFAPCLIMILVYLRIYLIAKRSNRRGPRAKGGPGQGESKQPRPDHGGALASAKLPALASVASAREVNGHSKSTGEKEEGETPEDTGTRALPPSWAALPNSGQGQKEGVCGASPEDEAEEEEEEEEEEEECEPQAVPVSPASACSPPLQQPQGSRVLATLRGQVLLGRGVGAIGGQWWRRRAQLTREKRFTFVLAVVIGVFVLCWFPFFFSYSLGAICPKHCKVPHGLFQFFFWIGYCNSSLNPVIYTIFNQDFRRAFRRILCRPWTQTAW
Procedure: as §1, §2

[3] = molecular target: T3, alpha 2C adrenergic receptor (Homo sapiens, UniProt P18825); assay: RSAT (Receptor Selection and Amplification Technology) assay, alpha 2C; details: for EC50: NIH-3T3 cells cotransfected with receptor and Gq/i5; for efficacy or intrinsic activity (value in parentheses) Alpha 2C: ratio of maximal effect to that of standard full agonist brimonidine
T3 construct: expressed in transfected cells; host or cells: NIH-3T3 cells, transient cotransfection by calcium phosphate
T3 sequence (P18825 1-462): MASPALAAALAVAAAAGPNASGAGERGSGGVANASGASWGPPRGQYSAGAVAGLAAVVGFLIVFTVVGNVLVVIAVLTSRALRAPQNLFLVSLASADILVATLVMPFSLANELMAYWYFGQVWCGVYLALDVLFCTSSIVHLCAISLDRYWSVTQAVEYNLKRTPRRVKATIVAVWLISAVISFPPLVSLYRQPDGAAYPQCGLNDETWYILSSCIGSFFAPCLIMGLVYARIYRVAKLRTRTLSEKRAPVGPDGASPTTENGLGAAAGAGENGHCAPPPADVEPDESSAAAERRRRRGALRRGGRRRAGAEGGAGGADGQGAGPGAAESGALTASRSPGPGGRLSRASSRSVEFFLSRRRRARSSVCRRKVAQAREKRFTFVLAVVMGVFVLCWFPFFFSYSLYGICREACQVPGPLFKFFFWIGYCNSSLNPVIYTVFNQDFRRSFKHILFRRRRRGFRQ
Procedure: as §1, §2

| EC50 [1] [nM] | EC50 [2] [nM] | efficacy or intrinsic activity (value in parentheses) Alpha 2B [2] | EC50 [3] [nM] | efficacy or intrinsic activity (value in parentheses) Alpha 2C [3] | efficacy or intrinsic activity (value in parentheses) Alpha 2A [1] | Structure (SMILES) |
| --- | --- | --- | --- | --- | --- | --- |
| ≥ 210000 | 116 | 1.23 | 1410 | 0.58 | – | OCCNC(=S)NCc1cc(Br)cc(Br)c1F |
| ≥ 210000 | 17 | 1.13 | 87 | 0.6 | – | OCCNC(=S)NCc1cc(Cl)ccc1F |
| ≥ 210000 | 118 | 0.92 | – | – | – | OCCNC(=S)NCc1cc(Cl)cc(Cl)c1F |
| ≥ 210000 | 2390 | 0.55 | ≥ 210000 | – | – | OCCNC(=S)NCc1cccc(OC(F)(F)F)c1 |
| ≥ 210000 | 240 | 0.8 | 1490 | 0.37 | – | Cc1cc(Br)cc(CNC(=S)NCCO)c1F |
| ≥ 210000 | 89 | 0.92 | 1420 | 0.78 | – | OCCNC(=S)NCc1c(Cl)ccc(Cl)c1F |
| ≥ 210000 | 42 | 0.7 | 28 | 0.4 | – | CCOc1ccccc1CNC(=S)NCCO |
| ≥ 210000 | 99 | 0.6 | ≥ 210000 | – | – | OCCNC(=S)NCc1ccc(F)c(Cl)c1 |
| ≥ 210000 | 478 | 0.72 | > 2000 | – | – | OCCNC(=S)NCc1ccc(F)cc1C(F)(F)F |
| ≥ 210000 | 95 | 0.91 | – | – | – | Cc1ccc(F)c(CNC(=S)NCCO)c1 |
| ≥ 210000 | 50 | 0.78 | – | – | – | OCCNC(=S)NCc1cc(Br)ccc1Cl |
| ≥ 210000 | 282 | 0.91 | – | – | – | COc1ccc(F)c(CNC(=S)NCCO)c1 |
| ≥ 210000 | 205 | 0.81 | – | – | – | OCCNC(=S)NCc1c(F)ccc(Br)c1F |

Second part, the compound before the results:

| Structure (SMILES) | EC50 [1] [nM] | EC50 [2] [nM] | efficacy or intrinsic activity (value in parentheses) Alpha 2B [2] | EC50 [3] [nM] | efficacy or intrinsic activity (value in parentheses) Alpha 2C [3] | efficacy or intrinsic activity (value in parentheses) Alpha 2A [1] |
| --- | --- | --- | --- | --- | --- | --- |
| Cc1ccc(Br)c(CNC(=S)NCCO)c1F | ≥ 210000 | 115 | 0.8 | > 3000 | – | – |
| OCCNC(=S)NCc1c(F)cccc1F | ≥ 210000 | 462 | 0.45 | 5060 | 0.4 | – |
| Cc1cccc(CNC(=S)NCCO)c1 | ≥ 210000 | 913 | 0.9 | 602 | 0.3 | – |
| COc1ccc(Cl)cc1CNC(=S)NCCO | 380 | 19 | 1.09 | 175 | 0.53 | 0.33 |
| OCCNC(=S)NCc1cccc(Br)c1 | 295 | 14 | 0.9 | ≥ 210000 | – | 0.3 |
| OCCNC(=S)NCc1cc(Cl)ccc1Br | ≥ 210000 | 25 | 0.82 | – | – | – |
| OCCNC(=S)NCc1cccc(Br)c1F | 136 | 5.5 | 1.03 | 41 | 0.88 | 0.52 |
| OCCNC(=S)NCc1cc(Br)c(F)c(F)c1F | ≥ 210000 | 512 | 1.07 | ≥ 210000 | – | – |
| Cc1ccc(CNC(=S)NCCO)cc1 | ≥ 210000 | 59 | 0.6 | 1810 | 0.4 | – |
| OCCNC(=S)NCc1c(Br)ccc(F)c1F | ≥ 210000 | 48 | 0.60 | ≥ 210000 | – | – |
| OCCNC(=S)NCc1cccc(I)c1F | 62 | 2 | 1.35 | 23 | 0.91 | 0.85 |
| OCCNC(=S)NCc1c(F)cc(F)c(F)c1F | ≥ 210000 | 2050 | 0.89 | ≥ 210000 | – | – |
| OCCNC(=S)NCc1c(F)cccc1C(F)(F)F | ≥ 210000 | 137 | 0.68 | 617 | 0.37 | – |
| OCCNC(=S)NCc1cc(C(F)(F)F)ccc1F | ≥ 210000 | 523 | 0.8 | 853 | 0.7 | – |
| OCCNC(=S)NCc1c(Cl)cccc1Cl | ≥ 210000 | 380 | 0.93 | ≥ 210000 | – | – |
| OCCNC(=S)NCc1cccc(C(F)(F)F)c1 | ≥ 210000 | 495 | 0.73 | ≥ 210000 | – | – |
| OCCNC(=S)NCc1cccc(C(F)(F)F)c1Cl | ≥ 210000 | 33 | 1.1 | – | – | – |
| OCCNC(=S)NCc1c(F)ccc(Cl)c1Cl | ≥ 210000 | 30 | 0.75 | 238 | 0.34 | – |
| OCCNC(=S)NCc1cc(F)c(F)cc1F | ≥ 210000 | 271 | 0.48 | – | – | – |
